In ChEMBL document CHEMBL1136837, “Unified QSAR approach to antimicrobials. 4. Multi-target QSAR modeling and comparative multi-distance study of the giant components of antiviral drug-drug complex networks” (Bioorg Med Chem, 2009):
pIC50: −log10 of the molar value.

System: Human immunodeficiency virus 1
Assay: Antiviral activity against HIV1
Type: functional, organism-based

Structure (SMILES) | pIC50
C=C[C@@]1(CO)C=C[C@H](n2cc(C)c(=O)[nH]c2=O)O1 | 4.00
O=c1ccn([C@H]2S[C@@H](CO)C=C2F)c(=O)[nH]1 | 4.00
Cc1cn([C@H]2S[C@@H](CO)C=C2F)c(=O)[nH]c1=O | 4.00
O=C(O)c1ccc2ccc(/C=C/c3cc(O)cc(/C=C/c4ccc5ccc(C(=O)O)c(O)c5n4)c3)nc2c1O | 4.00
Nc1nc2c(ncn2C2C=CC(OCP(=O)(O)OP(=O)(O)C(Br)(Br)P(=O)(O)O)C2)c(=O)[nH]1 (stereo unspecified) | 3.70
Cc1cn([C@H]2C=C[C@@](C)(CO)O2)c(=O)[nH]c1=O | 4.00
O=C(O)c1ccc2ccc(/C=C/c3ccco3)nc2c1O | 4.00
O=C(O)c1ccc2ccc(/C=C/c3cccnc3)nc2c1O | 4.00
Nc1ncnc2c1ncn2C1C=CC(OCP(=O)(O)OP(=O)(O)C(Br)(Br)P(=O)(O)O)C1 (stereo unspecified) | 3.00
Nc1nc(O)c2ncn([C@H]3CC(F)(F)[C@H](CO)O3)c2n1 | 4.00
O=Cc1c(Cl)n([C@@H]2O[C@H](CF)[C@@H](O)[C@H]2O)c2cc(Cl)c(Cl)cc12 | 4.70
OC[C@@H]1O[C@@H](n2cnc3c(O)ncnc32)CC1(F)F | 4.00
O=c1nc(O)ccn1[C@@H]1C=C(F)[C@H](CO)O1 | 4.00
Nc1nc(O)c2ncn([C@H]3C=C(F)[C@H](CO)O3)c2n1 | 4.00
Nc1ccn([C@H]2CC(F)(F)[C@H](CO)O2)c(=O)n1 | 4.00
OC[C@@H]1O[C@H](n2cnc3c(O)ncnc32)CC1(F)F | 4.00
Cc1cn([C@@H]2CC(F)(F)[C@H](CO)O2)c(=O)nc1O | 4.00
O=c1nc(O)ccn1[C@@H]1CC(F)(F)[C@H](CO)O1 | 4.00
Cc1cn([C@H]2C=C(F)[C@H](CO)O2)c(=O)nc1O | 4.00

Structure (SMILES) | pIC50
C[C@H]1O[C@@H](n2c(Cl)c(C=O)c3cc(Cl)c(Cl)cc32)[C@H](O)[C@@H]1O | 4.70
Nc1ncnc2c1ncn2[C@@H]1CC(F)(F)[C@H](CO)O1 | 4.00
CC(=O)c1c(Cl)n([C@H]2C[C@H](O)[C@@H](CO)O2)c2cc(Cl)c(Cl)cc12 | 5.10
Cc1cn([C@@H]2C=C(F)[C@H](CO)O2)c(=O)nc1O | 4.00
Cc1cn([C@H]2C=C[C@@](C#CCl)(CO)O2)c(=O)[nH]c1=O | 4.00
CCOC(=O)c1cc2ccccc2n1S(=O)(=O)c1cc(Cl)ccc1[N+](=O)[O-] | 4.00
O=C1CSC(c2c(Cl)cccc2Cl)N1c1cccnc1 (stereo unspecified) | 4.02
Nc1nc(O)c2ncn([C@@H]3CC(F)(F)[C@H](CO)O3)c2n1 | 4.00
C=CC[C@@]1(CO)C=C[C@H](n2cc(C)c(=O)[nH]c2=O)O1 | 4.00
CCOC(=O)c1cc2ccccc2n1S(=O)(=O)c1ccccc1[N+](=O)[O-] | 3.70
Nc1ncnc2c1ncn2[C@H]1C=C(F)[C@H](CO)O1 | 4.00
[N-]=[N+]=NC[C@H]1O[C@@H](n2c(Cl)c(C=O)c3cc(Cl)c(Cl)cc32)[C@H](O)[C@@H]1O | 5.00
Nc1ncnc2c1ncn2[C@H]1CC(F)(F)[C@H](CO)O1 | 4.00
OC[C@@H]1O[C@H](n2cnc3c(O)ncnc32)C=C1F | 4.00
O=c1nc(O)ccn1[C@H]1CC(F)(F)[C@H](CO)O1 | 4.00
O=S(=O)(c1ccccc1)n1ccc2ccccc21 | 3.82
NNC(=O)c1cc2ccccc2n1S(=O)(=O)c1ccccc1 | 3.70
CCOC(=O)c1cc2ccccc2n1S(=O)(=O)c1ccccc1 | 3.70

Continued, values first:

pIC50 | Structure (SMILES)
5.67 | O=C1CSC(c2c(F)cccc2Cl)N1c1ccc(Cl)cn1 (stereo unspecified)
7.23 | Cc1cc(C)nc(N2C(=O)CSC2c2c(F)cccc2F)c1 (stereo unspecified)
7.38 | Cc1cc(C)nc(N2C(=O)CSC2c2c(F)cccc2Cl)c1 (stereo unspecified)
5.14 | O=C1CSC(c2c(F)cccc2F)N1c1ccc(Cl)cn1 (stereo unspecified)
7.19 | O=C1CSC(c2c(F)cccc2Cl)N1c1cccc(Br)n1 (stereo unspecified)
7.00 | Cc1ccnc(N2C(=O)CSC2c2c(F)cccc2Cl)c1 (stereo unspecified)
9.00 | Cc1cc(/C=C/C#N)cc(C)c1Oc1ccnc(Nc2ccc(C#N)cc2)n1
4.60 | Nc1nc2c(ncn2C2C=CC(OCP(=O)(O)OP(=O)(O)C(F)(F)P(=O)(O)O)C2)c(=O)[nH]1 (stereo unspecified)
6.70 | Nc1ncnc2c1ncn2C1C=CC(OCP(=O)(O)OP(=O)(O)OP(=O)(O)O)C1 (stereo unspecified)
9.20 | Cc1cc(Br)c(Nc2ccnc(Nc3ccc(C#N)cc3)n2)c(Br)c1
6.52 | NC(=O)c1[nH]c2ccc(Cl)cc2c1S(=O)(=O)c1cc(Cl)ccc1N
8.22 | Cc1cc(C)cc(Sc2c(C(N)=O)[nH]c3ccc(Cl)cc23)c1
4.89 | NNC(=O)c1[nH]c2ccc(Cl)cc2c1Sc1cc(Cl)ccc1N
5.51 | NC(=O)c1[nH]c2ccc(Cl)cc2c1Sc1ccc(Cl)cc1
8.40 | Cc1ccc(S(=O)(=O)c2c(C(N)=O)[nH]c3ccc(Cl)cc23)c(C)c1
9.52 | CCOC(=O)Cc1c(N)nc(N)nc1OCCOCP(=O)(O)O
7.52 | O=C1CSC(c2c(F)cccc2F)N1c1cccc(Br)n1 (stereo unspecified)
5.82 | O=C1CSC(c2c(Cl)cccc2Cl)N1c1ccc(Br)cn1 (stereo unspecified)
7.05 | Cc1cc(C)nc(N2C(=O)CSC2c2c(Cl)cccc2Cl)c1 (stereo unspecified)
5.30 | NNC(=O)c1[nH]c2ccc(Cl)cc2c1Sc1ccc(F)cc1
7.74 | Nc1nc(=O)n([C@@H]2C=C(F)[C@H](CO)O2)cc1F
4.40 | N#Cc1c(Cl)n([C@@H]2O[C@H](CF)[C@@H](O)[C@H]2O)c2cc(Cl)c(Cl)cc12

pIC50 | Structure (SMILES)
4.41 | Nc1nc(O)c2ncn([C@@H]3C=C(F)[C@H](CO)O3)c2n1
4.94 | Nc1ccn([C@@H]2CC(F)(F)[C@H](CO)O2)c(=O)n1
7.05 | Nc1ccn([C@@H]2C=C(F)[C@H](CO)O2)c(=O)n1
4.36 | Nc1nc(O)c2ncn([C@H]3S[C@@H](CO)C=C3F)c2n1
4.49 | C[C@H]1O[C@@H](n2c(Cl)c(C#N)c3cc(Cl)c(Cl)cc32)[C@H](O)[C@@H]1O
9.20 | Cc1cc(/C=C/C#N)ccc1Oc1ccnc(Nc2ccc(C#N)cc2)n1
4.46 | N#Cc1c(Cl)n([C@H]2C[C@H](O)[C@@H](CO)O2)c2cc(Cl)c(Cl)cc12
4.27 | Cc1cccnc1N1C(=O)CSC1c1c(F)cccc1F (stereo unspecified)
6.07 | O=C1CSC(c2c(F)cccc2F)N1c1ccccn1 (stereo unspecified)
5.15 | Cc1cn([C@H]2C=C[C@@](C#N)(CO)O2)c(=O)[nH]c1=O
4.81 | OC[C@H]1C=C(F)[C@@H](n2cnc3c(O)ncnc32)S1
4.94 | Nc1nc(F)nc2c1ncn2[C@H]1S[C@@H](CO)C=C1F
6.52 | Nc1nc2c(ncn2C2C=CC(OCP(=O)(O)OP(=O)(O)OP(=O)(O)O)C2)c(=O)[nH]1 (stereo unspecified)
5.00 | NNC(=O)c1[nH]c2ccc(Cl)cc2c1Sc1ccc(Cl)cc1
5.05 | NC(=O)c1[nH]c2ccccc2c1Sc1cc(Cl)ccc1N
8.00 | NNC(=O)c1[nH]c2ccc(Cl)cc2c1S(=O)(=O)c1ccccc1
5.10 | CC(C)(C)c1ccc(Sc2c(C(N)=O)[nH]c3ccc(Cl)cc23)cc1
9.00 | Cc1cccc(S(=O)(=O)c2c(C(N)=O)[nH]c3ccc(Cl)cc23)c1
5.72 | CC(C)c1ccc(Sc2c(C(N)=O)[nH]c3ccc(Cl)cc23)cc1
7.82 | CC(=O)c1ccc2[nH]c(C(N)=O)c(S(=O)(=O)c3cc(C)cc(C)c3)c2c1
8.52 | Cc1ccc(S(=O)(=O)c2c(C(N)=O)[nH]c3ccc(Cl)cc23)cc1
6.89 | CC(C)(C)c1ccc(S(=O)(=O)c2c(C(N)=O)[nH]c3ccc(Cl)cc23)cc1
